Reference: ChEMBL document CHEMBL1201862, “PubChem BioAssay data set” (2004)
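Each compound was tested at five concentrations against cells in 96-well plates for 48 hours. GI50: concentration for 50% inhibition of growth.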 Calls of active or inactive are those of the source. Cut-off read from the data, not from the text of the source: active = GI50 up to about 1.1 µM and inactive = higher.

How the values were obtained:
Experiment in all cases: inhibition of tumour cell growth, NCI panel, 48 h
OVCAR-5 = test system: OVCAR-5
NCI-H460 = test system: NCI-H460
LOX IMVI = test system: LOX IMVI
KM12 = test system: KM12
SF-268 = test system: SF-268
HOP-62 = test system: HOP-62
COLO 205 = test system: COLO 205
NCI-H522 = test system: NCI-H522
NCI-H226 = test system: NCI-H226
SK-MEL-2 = test system: SK-MEL-2
Hs-578T = test system: Hs-578T
IGROV-1 = test system: IGROV-1
OVCAR-8 = test system: OVCAR-8
SNB-75 = test system: SNB-75
OVCAR-3 = test system: OVCAR-3
M14 = test system: M14
MOLT-4 = test system: MOLT-4
T47D = test system: T47D
SN12C = test system: SN12C
RPMI-8226 = test system: RPMI-8226
K562 = test system: K562
A549 = test system: A549
SK-MEL-28 = test system: SK-MEL-28
HCT-15 = test system: HCT-15
HOP-92 = test system: HOP-92
HT-29 = test system: HT-29
MDA-MB-435 = test system: MDA-MB-435
NCI/ADR-RES = test system: NCI/ADR-RES
SK-OV-3 = test system: SK-OV-3
U-251 = test system: U-251
SW-620 = test system: SW-620
SR = test system: SR
UO-31 = test system: UO-31
786-0 = test system: 786-0
RXF 393 = test system: RXF 393
HCT-116 = test system: HCT-116
EKVX = test system: EKVX
PC-3 = test system: PC-3
SNB-19 = test system: SNB-19
BT-549 = test system: BT-549
DU-145 = test system: DU-145
TK-10 = test system: TK-10
MDA-N = test system: MDA-N
CCRF-CEM = test system: CCRF-CEM
SF-295 = test system: SF-295
OVCAR-4 = test system: OVCAR-4
SK-MEL-5 = test system: SK-MEL-5
NCI-H23 = test system: NCI-H23
Malme-3M = test system: Malme-3M
MDA-MB-231 = test system: MDA-MB-231
UACC-257 = test system: UACC-257
CAKI-1 = test system: CAKI-1
A498 = test system: A498
MCF7 = test system: MCF7
ACHN = test system: ACHN
HCC 2998 = test system: HCC 2998
HL-60 = test system: HL-60
SF-539 = test system: SF-539
UACC-62 = test system: UACC-62

COc1cc(C=O)ccc1Oc1nnnn1-c1ccccc1
GI50 (OVCAR-5): > 100 µM (inactive) | GI50 (NCI-H460): > 100 µM (inactive) | GI50 (LOX IMVI): 39.9 µM (inactive) | GI50 (KM12): 55 µM (inactive) | GI50 (SF-268): 42.7 µM (inactive) | GI50 (HOP-62): > 100 µM (inactive) | GI50 (COLO 205): > 100 µM (inactive) | GI50 (NCI-H522): > 100 µM (inactive) | GI50 (NCI-H226): < 0.01 µM (active) | GI50 (SK-MEL-2): > 100 µM (inactive) | GI50 (Hs-578T): 48.6 µM (inactive) | GI50 (IGROV-1): 84.1 µM (inactive) | GI50 (OVCAR-8): 66.2 µM (inactive) | GI50 (SNB-75): 34.8 µM (inactive) | GI50 (OVCAR-3): 45.7 µM (inactive) | GI50 (M14): 31.8 µM (inactive) | GI50 (MOLT-4): 23.1 µM (inactive) | GI50 (T47D): 16.5 µM (inactive) | GI50 (SN12C): > 100 µM (inactive) | GI50 (RPMI-8226): 32.8 µM (inactive) | GI50 (K562): 34.7 µM (inactive) | GI50 (A549): > 100 µM (inactive) | GI50 (SK-MEL-28): 72.4 µM (inactive) | GI50 (HCT-15): 62.5 µM | GI50 (HOP-92): 71.4 µM (inactive) | GI50 (HT-29): 86.7 µM (inactive) | GI50 (MDA-MB-435): 36.4 µM (inactive) | GI50 (NCI/ADR-RES): 38.5 µM (inactive) | GI50 (SK-OV-3): > 100 µM (inactive) | GI50 (U-251): 85.3 µM (inactive) | GI50 (SW-620): 27.5 µM (inactive) | GI50 (SR): 18.9 µM (inactive) | GI50 (UO-31): 94.4 µM (inactive) | GI50 (786-0): > 100 µM (inactive) | GI50 (RXF 393): > 100 µM (inactive) | GI50 (HCT-116): 29.8 µM (inactive) | GI50 (EKVX): > 100 µM (inactive) | GI50 (PC-3): 82.4 µM (inactive) | GI50 (SNB-19): 54.8 µM (inactive) | GI50 (BT-549): 66.2 µM (inactive) | GI50 (DU-145): 32.1 µM (inactive) | GI50 (TK-10): > 100 µM (inactive) | GI50 (MDA-N): 37.8 µM (inactive) | GI50 (CCRF-CEM): 19.6 µM (inactive) | GI50 (SF-295): > 100 µM (inactive) | GI50 (OVCAR-4): 50.9 µM (inactive) | GI50 (SK-MEL-5): 20.1 µM (inactive) | GI50 (NCI-H23): 46 µM (inactive) | GI50 (Malme-3M): 84.1 µM (inactive) | GI50 (MDA-MB-231): > 100 µM (inactive) | GI50 (UACC-257): > 100 µM (inactive) | GI50 (CAKI-1): 31.3 µM (inactive)

Cc1cn(C2CC(O)C(COC(=O)NCCC(F)(F)C(F)(F)C(F)(F)C(F)(F)F)O2)c(=O)[nH]c1=O (centres undefined)
GI50 (OVCAR-5): > 100 µM (inactive) | GI50 (NCI-H460): > 100 µM (inactive) | GI50 (KM12): > 100 µM (inactive) | GI50 (A498): > 100 µM (inactive) | GI50 (SF-268): > 100 µM (inactive) | GI50 (HOP-62): > 100 µM (inactive) | GI50 (COLO 205): > 100 µM (inactive) | GI50 (NCI-H522): > 100 µM (inactive) | GI50 (NCI-H226): > 100 µM (inactive) | GI50 (Hs-578T): 80.5 µM (inactive) | GI50 (IGROV-1): > 100 µM (inactive) | GI50 (OVCAR-8): > 100 µM (inactive) | GI50 (SNB-75): 54.7 µM (inactive) | GI50 (MCF7): > 100 µM (inactive) | GI50 (OVCAR-3): > 100 µM (inactive) | GI50 (M14): > 100 µM (inactive) | GI50 (MOLT-4): > 100 µM (inactive) | GI50 (T47D): > 100 µM (inactive) | GI50 (SN12C): > 100 µM (inactive) | GI50 (K562): > 100 µM (inactive) | GI50 (ACHN): > 100 µM (inactive) | GI50 (HCC 2998): > 100 µM (inactive) | GI50 (A549): > 100 µM (inactive) | GI50 (SK-MEL-28): > 100 µM (inactive) | GI50 (HOP-92): 54.6 µM (inactive) | GI50 (HL-60): > 100 µM (inactive) | GI50 (HT-29): > 100 µM (inactive) | GI50 (MDA-MB-435): 75.2 µM (inactive) | GI50 (SF-539): > 100 µM (inactive) | GI50 (SK-OV-3): > 100 µM (inactive) | GI50 (U-251): > 100 µM (inactive) | GI50 (SW-620): > 100 µM (inactive) | GI50 (SR): > 100 µM (inactive) | GI50 (UO-31): > 100 µM (inactive) | GI50 (786-0): > 100 µM (inactive) | GI50 (RXF 393): 78.5 µM (inactive) | GI50 (HCT-116): 88.5 µM (inactive) | GI50 (EKVX): > 100 µM (inactive) | GI50 (PC-3): > 100 µM (inactive) | GI50 (SNB-19): > 100 µM (inactive) | GI50 (UACC-62): > 100 µM (inactive) | GI50 (BT-549): > 100 µM (inactive) | GI50 (DU-145): > 100 µM (inactive) | GI50 (TK-10): > 100 µM (inactive) | GI50 (MDA-N): 86.3 µM (inactive) | GI50 (CCRF-CEM): > 100 µM (inactive) | GI50 (SF-295): > 100 µM (inactive) | GI50 (OVCAR-4): > 100 µM (inactive) | GI50 (SK-MEL-5): > 100 µM (inactive) | GI50 (NCI-H23): > 100 µM (inactive) | GI50 (Malme-3M): > 100 µM (inactive) | GI50 (MDA-MB-231): > 100 µM (inactive) | GI50 (UACC-257): > 100 µM (inactive) | GI50 (CAKI-1): > 100 µM (inactive)

CC(C)[C@H](O)C(=O)N[C@H]1Cc2ccc3c(c2)[C@]24C5=C(N=C(O5)[C@H](C(C)C)NC1=O)c1nc(Cl)c(o1)-c1c(Cl)[nH]c5cccc(c15)-c1cccc2c1N[C@H]4O3
GI50 (OVCAR-5): 0.0242 µM (active) | GI50 (NCI-H460): 0.0119 µM (active) | GI50 (LOX IMVI): 0.00392 µM (active) | GI50 (KM12): 0.00607 µM (active) | GI50 (A498): 1.27 µM (inactive) | GI50 (SF-268): 0.00513 µM (active) | GI50 (HOP-62): 2.33 µM (inactive) | GI50 (NCI-H522): 0.0022 µM (active) | GI50 (NCI-H226): 0.00346 µM (active) | GI50 (Hs-578T): 0.00256 µM (active) | GI50 (IGROV-1): 0.00342 µM (active) | GI50 (MCF7): 0.00274 µM (active) | GI50 (OVCAR-3): 0.00253 µM (active) | GI50 (M14): 0.0311 µM (active) | GI50 (MOLT-4): 0.001 µM (active) | GI50 (T47D): 3.9 µM (inactive) | GI50 (K562): 0.00427 µM (active) | GI50 (ACHN): 0.0469 µM (active) | GI50 (HCC 2998): 0.00879 µM (active) | GI50 (A549): 0.0148 µM (active) | GI50 (SK-MEL-28): 0.00718 µM (active) | GI50 (HCT-15): 0.0392 µM | GI50 (HOP-92): 0.00693 µM (active) | GI50 (HT-29): 0.0111 µM (active) | GI50 (SF-539): 0.00403 µM (active) | GI50 (NCI/ADR-RES): 0.257 µM (active) | GI50 (SK-OV-3): 0.001 µM (active) | GI50 (U-251): 0.00547 µM (active) | GI50 (SW-620): 0.00671 µM (active) | GI50 (UO-31): 0.0457 µM (active) | GI50 (786-0): 0.00535 µM (active) | GI50 (HCT-116): 0.00339 µM (active) | GI50 (EKVX): 0.224 µM (active) | GI50 (PC-3): 0.00393 µM (active) | GI50 (SNB-19): 0.00644 µM (active) | GI50 (BT-549): 0.00863 µM (active) | GI50 (DU-145): 0.00524 µM (active) | GI50 (TK-10): 0.0818 µM (active) | GI50 (MDA-N): 0.00162 µM (active) | GI50 (CCRF-CEM): 0.00103 µM (active) | GI50 (SF-295): 0.0167 µM (active) | GI50 (OVCAR-4): 1.57 µM (inactive) | GI50 (SK-MEL-5): 0.0103 µM (active) | GI50 (NCI-H23): 0.00625 µM (active) | GI50 (Malme-3M): 0.00643 µM (active) | GI50 (MDA-MB-231): 0.015 µM (active) | GI50 (UACC-257): 0.0229 µM (active) | GI50 (CAKI-1): 0.0968 µM (active)
